Data: US7189710B2, “C2-fluoro pyrrolo [2,1−c][1,4]benzodiazepine dimers” (Council of Scientific and Industrial Research, priority 2004, dated 2007)

What was measured:
[1] = test system: sixty human tumour cells derived from nine cancer types; experiment: NCI in vitro cytotoxicity screen, sixty human tumour cell lines, SRB assay, 48 h (mean graph midpoints); assay type: cell-based; settings: 48 h continuous drug exposure, mean over human tumour cell lines; for Log10LC5O mean graph midpoint (MG_MID): 50% cell death (−50% growth); for GI50: 50% cell growth inhibition, read-out: Log10 GI50 mean graph midpoint (MG_MID) (converted); for Log10 TGI mean graph midpoint (MG_MID): total cell growth inhibition (0% growth)
Description: (§1) Biological Activity: In vitro biological activity studies were carried out at National Cancer Institute (USA).
(§2) Cytotoxicity: Compounds IXa and IXc were evaluated for in vitro against sixty human tumour cells derived from nine cancer types (leukemia, non-small-cell lung, colon, CNS, melanoma, ovarian, prostate, and breast cancer). For each compound, dose response curves against each cell line were measured at a minimum of five concentrations at 10 fold dilutions. A protocol of 48 h continuous drug exposure was used and a sulforhodamine B (SRB) protein assay was used to estimate cell viability or growth. The concentration causing 50% cell growth inhibition (GI50), total cell growth inhibition (TGI, 0% growth) and 50% cell death (LC50, −50% growth) compared with the control was calculated.

[2] = test system: melanoma cancer cell lines; experiment: NCI in vitro cytotoxicity, SRB assay, average per cancer type; assay type: cell-based; settings: Homo sapiens; average of six to eight different cancer cell lines; read-out: Log GI50 (inhibitory concentration), melanoma (converted)
Description: as §1, §2
(§3) Each cancer type represent the average of six to eight different cancer cell lines.

[3] = test system: CNS cancer cell lines; experiment: as above; assay type: cell-based; settings: Homo sapiens; average of six to eight different cancer cell lines; read-out: Log GI50 (inhibitory concentration), CNS (converted)
Description: as §1, §2, §3

[4] = test system: non-small-cell lung cancer cell lines; experiment: as above; assay type: cell-based; settings: Homo sapiens; average of six to eight different cancer cell lines; read-out: Log GI50 (inhibitory concentration), non-small-cell lung (converted)
Description: as §1, §2, §3

[5] = test system: breast cancer cell lines; experiment: as above; assay type: cell-based; settings: Homo sapiens; average of six to eight different cancer cell lines; read-out: Log GI50 (inhibitory concentration), breast (converted)
Description: as §1, §2, §3

[6] = test system: leukemia cancer cell lines; experiment: as above; assay type: cell-based; settings: Homo sapiens; average of six to eight different cancer cell lines; read-out: Log GI50 (inhibitory concentration), leukemia (converted)
Description: as §1, §2, §3

[7] = test system: renal cancer cell lines; experiment: as above; assay type: cell-based; settings: Homo sapiens; average of six to eight different cancer cell lines; read-out: Log GI50 (inhibitory concentration), renal (converted)
Description: as §1, §2, §3

[8] = test system: prostate cancer cell lines; experiment: as above; assay type: cell-based; settings: Homo sapiens; average of six to eight different cancer cell lines; read-out: Log GI50 (inhibitory concentration), prostate (converted)
Description: as §1, §2, §3

[9] = test system: ovarian cancer cell lines; experiment: as above; assay type: cell-based; settings: Homo sapiens; average of six to eight different cancer cell lines; read-out: Log GI50 (inhibitory concentration), ovarian (converted)
Description: as §1, §2, §3

[10] = test system: colon cancer cell lines; experiment: as above; assay type: cell-based; settings: Homo sapiens; average of six to eight different cancer cell lines; read-out: Log GI50 (inhibitory concentration), colon (converted)
Description: as §1, §2, §3

[11] = test system: NCI-H460 (Lung); experiment: In vitro one dose primary anticancer assay; assay type: cell-based, human; settings: one dose at 10^−4 molar concentration
Description: as §1

[12] = test system: MCF7 (Breast); experiment: In vitro one dose primary anticancer assay; assay type: cell-based, human; settings: one dose at 10^−4 molar concentration
Description: as §1

[13] = test system: SF-268 (CNS); experiment: In vitro one dose primary anticancer assay; assay type: cell-based, human; settings: one dose at 10^−4 molar concentration
Description: as §1

Question: `COc1cc2c(cc1OCCCOc1cc3c(cc1OC)C(=O)N1C[C@@H](F)C[C@H]1C=N3)N=C[C@@H]1C[C@H](F)CN1C2=O` [IXa] was tested. Which “Log10LC5O mean graph midpoint (MG_MID)” value [1] did it give?
Answer: −4.31

Question: And the GI50 [1]?
Answer: 6.17 µM

Question: What about the “Log10 TGI mean graph midpoint (MG_MID)” value [1] of the same molecule?
Answer: −4.75

Question: What about the GI50 [2] of the same molecule?
Answer: 3.24 µM

Question: What about the GI50 [3] of the same molecule?
Answer: 2.86 µM

Question: And the GI50 [4]?
Answer: 5.52 µM

Question: And the GI50 [5]?
Answer: 3.24 µM

Question: What about the GI50 [6] of the same molecule?
Answer: 2.15 µM

Question: What about the GI50 [7] of the same molecule?
Answer: 4.84 µM

Question: What about the GI50 [8] of the same molecule?
Answer: 6.61 µM

Question: And the GI50 [9]?
Answer: 4.9 µM

Question: What about the GI50 [10] of the same molecule?
Answer: 5.19 µM

Question: And the “Growth percentages (Lung) NCI-H460” value [11]?
Answer: 0%

Question: What about the “Growth percentages (Breast) MCF7” value [12] of the same molecule?
Answer: 0%

Question: And the “Growth percentages (CNS) SF-268” value [13]?
Answer: 0%

Question: Which “Log10LC5O mean graph midpoint (MG_MID)” value [1] does the source give for `COc1cc2c(cc1OCCCCCOc1cc3c(cc1OC)C(=O)N1C[C@@H](F)C[C@H]1C=N3)N=C[C@@H]1C[C@H](F)CN1C2=O` [IXc] here?
Answer: −4.87

Question: And the GI50 [1]?
Answer: 0.0724 µM

Question: And the “Log10 TGI mean graph midpoint (MG_MID)” value [1]?
Answer: −6.27

Question: And the GI50 [2]?
Answer: 0.05 µM

Question: What about the GI50 [3] of the same molecule?
Answer: 0.0237 µM

Question: What about the GI50 [4] of the same molecule?
Answer: 0.0481 µM

Question: And the GI50 [5]?
Answer: 0.0583 µM

Question: And the GI50 [6]?
Answer: 0.0161 µM

Question: What about the GI50 [7] of the same molecule?
Answer: 0.0322 µM

Question: And the GI50 [8]?
Answer: 0.0372 µM

Question: What about the GI50 [9] of the same molecule?
Answer: 0.24 µM

Question: And the GI50 [10]?
Answer: 0.0863 µM

Question: What about the “Growth percentages (Lung) NCI-H460” value [11] of the same molecule?
Answer: 0%

Question: What about the “Growth percentages (Breast) MCF7” value [12] of the same molecule?
Answer: 0%

Question: What about the “Growth percentages (CNS) SF-268” value [13] of the same molecule?
Answer: 0%
